Assay results as given in the supplement of paper PMC10307832.

Tests used:
Experiment in all cases: relative viability (nuclei count vs DMSO), 5 days (fraction); higher = more cells survive
[1] = compound: CC(=O)Nc1cccc(-n2c(=O)n(C3CC3)c(=O)c3c(Nc4ccc(I)cc4F)n(C)c(=O)c(C)c32)c1 [Trametinib] + Cc1nc(NC(=O)N2CCC[C@H]2C(N)=O)sc1-c1ccnc(C(C)(C)C(F)(F)F)c1 [Alpelisib] (partner 2 µM)
In short: (§1)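 Lung cancer cell lines in 1536-well plates were dosed by pin tool the day after seeding, either with one drug alone or with a fixed anchor-drug dose plus five library-drug doses (not always all listed) in √10 steps. After 5 days, cells were fixed and their nuclei stained in one step (final 0.05% Triton X-100, 1% formaldehyde, 1 ug/ml Hoechst), then counted on 4× images. Relative viability is the nuclei count in treated wells divided by that in vehicle wells. Values are medians of duplicate plates.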

[2] = compound: CC(=O)Nc1cccc(-n2c(=O)n(C3CC3)c(=O)c3c(Nc4ccc(I)cc4F)n(C)c(=O)c(C)c32)c1 [Trametinib] + N=C(N)NC(=N)NCCc1ccccc1 [Phenformin] (partner 250 µM)
In short: as §1

[3] = compound: CN1C=C(C2=CC=CC=C21)/C=C\3/C4=C(C=CC=N4)NC3=O + C[C@@H](Oc1cc(-c2cnn(C3CCNCC3)c2)cnc1N)c1c(Cl)ccc(F)c1Cl [Crizotinib] (partner 1 µM)
In short: as §1

[4] = compound: CN1C=C(C2=CC=CC=C21)/C=C\3/C4=C(C=CC=N4)NC3=O + O=C(CCCCCCC(=O)Nc1ccccc1)NO [Vorinostat] (partner 1 µM)
In short: as §1

Cell Line: NCI-H322M
- relative viability ([1]; first compound 0.0025 µM): 0.78
- relative viability ([1]; first compound 0.007906 µM): 0.59
- relative viability ([1]; first compound 0.025 µM): 0.555
- relative viability ([1]; first compound 0.07906 µM): 0.455
- relative viability ([1]; first compound 0.25 µM): 0.316
- relative viability ([2]; first compound 0.0025 µM): 0.679
- relative viability ([2]; first compound 0.007906 µM): 0.577
- relative viability ([2]; first compound 0.025 µM): 0.525
- relative viability ([2]; first compound 0.07906 µM): 0.501
- relative viability ([2]; first compound 0.25 µM): 0.43
- relative viability ([3]; first compound 0.02 µM): 0.827
- relative viability ([3]; first compound 0.06325 µM): 0.841
- relative viability ([3]; first compound 0.2 µM): 0.876
- relative viability ([3]; first compound 0.6325 µM): 0.902
- relative viability ([3]; first compound 2 µM): 0.933
- relative viability ([4]; first compound 0.02 µM): 0.855
- relative viability ([4]; first compound 0.06325 µM): 0.821
- relative viability ([4]; first compound 0.2 µM): 0.712
- relative viability ([4]; first compound 0.6325 µM): 0.904
- relative viability ([4]; first compound 2 µM): 0.828

Cell Line: NCI-H358
- relative viability ([1]; first compound 0.0025 µM): 0.563
- relative viability ([1]; first compound 0.007906 µM): 0.373
- relative viability ([1]; first compound 0.025 µM): 0.277
- relative viability ([1]; first compound 0.07906 µM): 0.269
- relative viability ([1]; first compound 0.25 µM): 0.248
- relative viability ([2]; first compound 0.0025 µM): 0.201
- relative viability ([2]; first compound 0.007906 µM): 0.189
- relative viability ([2]; first compound 0.025 µM): 0.146
- relative viability ([2]; first compound 0.07906 µM): 0.124
- relative viability ([2]; first compound 0.25 µM): 0.121
- relative viability ([3]; first compound 0.02 µM): 0.56
- relative viability ([3]; first compound 0.06325 µM): 0.497
- relative viability ([3]; first compound 0.2 µM): 0.606
- relative viability ([3]; first compound 0.6325 µM): 0.601
- relative viability ([3]; first compound 2 µM): 0.633
- relative viability ([4]; first compound 0.02 µM): 0.764
- relative viability ([4]; first compound 0.06325 µM): 0.535
- relative viability ([4]; first compound 0.2 µM): 0.672
- relative viability ([4]; first compound 0.6325 µM): 1.21
- relative viability ([4]; first compound 2 µM): 0.51

Cell Line: NCI-H441
- relative viability ([1]; first compound 0.0025 µM): 0.836
- relative viability ([1]; first compound 0.007906 µM): 0.659
- relative viability ([1]; first compound 0.025 µM): 0.638
- relative viability ([1]; first compound 0.07906 µM): 0.533
- relative viability ([1]; first compound 0.25 µM): 0.33
- relative viability ([2]; first compound 0.0025 µM): 0.744
- relative viability ([2]; first compound 0.007906 µM): 0.836
- relative viability ([2]; first compound 0.025 µM): 0.501
- relative viability ([2]; first compound 0.07906 µM): 0.561
- relative viability ([2]; first compound 0.25 µM): 0.252
- relative viability ([3]; first compound 0.02 µM): 0.972
- relative viability ([3]; first compound 0.06325 µM): 0.706
- relative viability ([3]; first compound 0.2 µM): 0.72
- relative viability ([3]; first compound 0.6325 µM): 0.89
- relative viability ([3]; first compound 2 µM): 0.767
- relative viability ([4]; first compound 0.02 µM): 0.807
- relative viability ([4]; first compound 0.06325 µM): 0.752
- relative viability ([4]; first compound 0.2 µM): 0.833
- relative viability ([4]; first compound 0.6325 µM): 0.694
- relative viability ([4]; first compound 2 µM): 0.793

Cell Line: NCI-H460
- relative viability ([1]; first compound 0.0025 µM): 0.417
- relative viability ([1]; first compound 0.007906 µM): 0.146
- relative viability ([1]; first compound 0.025 µM): 0.115
- relative viability ([1]; first compound 0.07906 µM): 0.0733
- relative viability ([1]; first compound 0.25 µM): 0.0121
- relative viability ([2]; first compound 0.0025 µM): 0.502
- relative viability ([2]; first compound 0.007906 µM): 0.332
- relative viability ([2]; first compound 0.025 µM): 0.237
- relative viability ([2]; first compound 0.07906 µM): 0.135
- relative viability ([2]; first compound 0.25 µM): 0.041
- relative viability ([3]; first compound 0.02 µM): 0.994
- relative viability ([3]; first compound 0.06325 µM): 0.99
- relative viability ([3]; first compound 0.2 µM): 0.932
- relative viability ([3]; first compound 2 µM): 0.902
- relative viability ([4]; first compound 0.02 µM): 0.958
- relative viability ([4]; first compound 0.06325 µM): 0.655
- relative viability ([4]; first compound 0.2 µM): 0.685
- relative viability ([4]; first compound 0.6325 µM): 0.37
- relative viability ([4]; first compound 2 µM): 0.545

Cell Line: NCI-H520
- relative viability ([1]; first compound 0.0025 µM): 0.768
- relative viability ([1]; first compound 0.007906 µM): 0.887
- relative viability ([1]; first compound 0.025 µM): 0.81
- relative viability ([1]; first compound 0.07906 µM): 0.818
- relative viability ([1]; first compound 0.25 µM): 0.693
- relative viability ([2]; first compound 0.0025 µM): 0.543
- relative viability ([2]; first compound 0.007906 µM): 0.666
- relative viability ([2]; first compound 0.025 µM): 0.392
- relative viability ([2]; first compound 0.07906 µM): 0.608
- relative viability ([2]; first compound 0.25 µM): 0.199
- relative viability ([3]; first compound 0.02 µM): 0.569
- relative viability ([3]; first compound 0.06325 µM): 0.828
- relative viability ([3]; first compound 0.2 µM): 0.885
- relative viability ([3]; first compound 0.6325 µM): 0.773
- relative viability ([3]; first compound 2 µM): 0.807
- relative viability ([4]; first compound 0.02 µM): 0.797
- relative viability ([4]; first compound 0.06325 µM): 0.482
- relative viability ([4]; first compound 0.2 µM): 0.661
- relative viability ([4]; first compound 0.6325 µM): 0.718
- relative viability ([4]; first compound 2 µM): 0.722

Cell Line: NCI-H596
- relative viability ([1]; first compound 0.0025 µM): 0.34
- relative viability ([1]; first compound 0.007906 µM): 0.422
- relative viability ([1]; first compound 0.025 µM): 0.311
- relative viability ([1]; first compound 0.07906 µM): 0.371
- relative viability ([1]; first compound 0.25 µM): 0.342
- relative viability ([2]; first compound 0.0025 µM): 0.713
- relative viability ([2]; first compound 0.007906 µM): 0.704
- relative viability ([2]; first compound 0.025 µM): 0.485
- relative viability ([2]; first compound 0.07906 µM): 0.622
- relative viability ([2]; first compound 0.25 µM): 0.411
- relative viability ([3]; first compound 0.02 µM): 0.932
- relative viability ([3]; first compound 0.06325 µM): 1.01
- relative viability ([3]; first compound 0.2 µM): 0.936
- relative viability ([3]; first compound 0.6325 µM): 0.89
- relative viability ([3]; first compound 2 µM): 0.891
- relative viability ([4]; first compound 0.02 µM): 0.642
- relative viability ([4]; first compound 0.06325 µM): 0.653
- relative viability ([4]; first compound 0.2 µM): 0.484
- relative viability ([4]; first compound 0.6325 µM): 0.589
- relative viability ([4]; first compound 2 µM): 0.595

Cell Line: NCI-H647
- relative viability ([1]; first compound 0.0025 µM): 1.14
- relative viability ([1]; first compound 0.007906 µM): 0.956
- relative viability ([1]; first compound 0.025 µM): 0.768
- relative viability ([1]; first compound 0.07906 µM): 0.638
- relative viability ([1]; first compound 0.25 µM): 0.199
- relative viability ([2]; first compound 0.0025 µM): 0.554
- relative viability ([2]; first compound 0.007906 µM): 0.561
- relative viability ([2]; first compound 0.025 µM): 0.507
- relative viability ([2]; first compound 0.07906 µM): 0.333
- relative viability ([2]; first compound 0.25 µM): 0.148
- relative viability ([3]; first compound 0.02 µM): 0.967
- relative viability ([3]; first compound 0.06325 µM): 0.923
- relative viability ([3]; first compound 0.2 µM): 1.04
- relative viability ([3]; first compound 0.6325 µM): 1.03
- relative viability ([3]; first compound 2 µM): 0.906
- relative viability ([4]; first compound 0.02 µM): 0.498
- relative viability ([4]; first compound 0.06325 µM): 0.529
- relative viability ([4]; first compound 0.2 µM): 0.676
- relative viability ([4]; first compound 0.6325 µM): 0.524
- relative viability ([4]; first compound 2 µM): 0.531

Cell Line: NCI-H650
- relative viability ([1]; first compound 0.0025 µM): 1.31
- relative viability ([1]; first compound 0.007906 µM): 1.42
- relative viability ([1]; first compound 0.025 µM): 1.38
- relative viability ([1]; first compound 0.07906 µM): 1.35
- relative viability ([1]; first compound 0.25 µM): 0.71
- relative viability ([2]; first compound 0.0025 µM): 0.532
- relative viability ([2]; first compound 0.007906 µM): 0.52
- relative viability ([2]; first compound 0.025 µM): 0.501
- relative viability ([2]; first compound 0.07906 µM): 0.426
- relative viability ([2]; first compound 0.25 µM): 0.403
- relative viability ([3]; first compound 0.02 µM): 0.586
- relative viability ([3]; first compound 0.06325 µM): 0.601
- relative viability ([3]; first compound 0.6325 µM): 0.771
- relative viability ([3]; first compound 2 µM): 0.797
- relative viability ([4]; first compound 0.02 µM): 0.439
- relative viability ([4]; first compound 0.06325 µM): 0.369
- relative viability ([4]; first compound 0.6325 µM): 0.383
- relative viability ([4]; first compound 2 µM): 0.328
